From patent US9272035B2, “Methods and compositions using PDE4 inhibitors for the treatment and management of autoimmune and inflammatory diseases” (Celgene Corporation, priority 2011, dated 2016)
Several values for one entry are separate records, joined by “and”; a condition that tells them apart may be missing. Equal entries are not always repeated. Entries after “also recorded” stand apart in the source; their conditions may differ. Where two headings read alike, the source gives them in different places. Values belong to the compound of their own block, whether it stands above or below them.

Legend:
[1] = cited from earlier work
[2] = tested on: rheumatoid arthritis synovial fibroblasts stimulated with IL-1, IL-6 and IL-6R; experiment: IL-7 gene expression assay in synovial fibroblasts; assay type: cell-based, human
Protocol: (§1) IL-7 Gene Expression Assay: […] Normal primary human chondrocytes and rheumatoid arthritis synovial fibroblasts purchased from Asterand (Detroit, Mich.) were thawed into a T-75 flask and cultured for 2-3 weeks to reach confluency. The media was 20% premium non-heat inactivated FBS-DMEM/F-12 (Invitrogen 11330-032)+1% pen/strep and 1% L-Glutamine. […] Upon reaching 90% confluency (usually in 1-2 days post-plating), the cells were serum starved for 20 hours by replacing the complete media with 2 ml serum-free media. The cells were treated with the test compounds for 1 hour at 37° C. […] The cells were then washed with cold PBS. Ribonucleic acid (RNA) was isolated by adding 600 μl RLT lysis buffer (Qiagen RNAEasy kit cat#74104), passing the cells through the Qiashredder (Qiagen cat#23800) followed by RNA isolation according to manufacturers' instructions (Qiagen RNAEasy kit). Purified RNA was reverse transcribed into cDNA with thermal cycler for real-time reverse transcriptase polymerase chain reaction (RTPCR) analysis. Interleukin-7 gene expression assays were carried out using the 7500 Real Time PCR system. A GAPDH gene expression assay control was run for each sample and was used as a normalization control.

[3] = tested on: mAB/LPS-induced experimental arthritis; experiment: Antibody-induced arthritis in mice (mAb/LPS model, 11 treatment days)
[4] = tested on: Human peripheral blood total T cells stimulated with anti-CD3 antibody; experiment: Cytokine and chemokine production by anti-CD3-stimulated T cells (cytometric bead array, Luminex 100); assay type: cell-based
Protocol: (§2) Cytokine and chemokine protein levels were analyzed by cytometric bead array on a Luminex 100. CAIA model: […] Compound A and ETN were administered once daily on days 3-13. […] Both hind paws (left and right) of each animal were examined for signs of arthritogenic responses in blinded fashion. Arthritic reactions were scored and recorded according to a 0-4 scale in ascending order of severity. Hind paw thickness was measured in mm using a Mitutoyo Electronic Digital Caliper.

[5] = tested on: normal primary human chondrocytes stimulated with IL-1, IL-6 and IL-6R; experiment: IL-7 gene expression assay in chondrocytes; assay type: cell-based
Protocol: as §1

Human bone marrow cells = experiment: Osteoclastogenesis induced by dexamethasone and Vitamin D; assay type: cell-based; conditions: 10 nM dexamethasone and 10 nM Vitamin D; day 7
Protocol: Human bone marrow cells were treated with Compound A and with 10 nM dexamethasone and 10 nM Vitamin D to differentiate cells into osteoclasts. Fresh media and Compound A were added every 3 days. At day 7 supernatant was collected and adherent cells were isolated to obtain RNA. Day 7 cells were stained with TRAPS and the number of osteoclasts was counted.

[6] = tested on: collagen antibody-induced arthritis; experiment: Mouse model of collagen antibody-induced arthritis (CAIA); assay type: in vivo, Male BALB/c mice
Protocol: as §2

[7] = tested on: stimulated primary human normal chondrocytes; experiment: Cell surface protein expression assay (flow cytometry); assay type: cell-based
Protocol: Cell Surface Protein Expression Assay: Normal primary human chondrocyte were thawed into a T-75 flask and grown for 2-3 weeks to reach confluency in 20% premium non-heat inactivated FBS-DMEM/F-12 (Invitrogen 11330-032)+1% pen/strep and 1% L-Glutamine. The cells were plated (1.0×10^6 cells/10 ml of complete media) in a 100×20 mm tissue culture plate. The next day, the media was replaced with 10 ml serum-free media for 20 min to serum starve the cells. Compound A (0.1-10 μM) was added for 1 hour at 37° C. (0.25% final DMSO). In addition, cytokines IL-1β (10 ng/ml), IL-6 (10 ng/ml), and IL-6R (20 ng/ml) were added and the cells continued incubation overnight (18 hours) at 37° C. The cells were harvested by a non-enzymatic cell dissociation solution (Millipore S-004-B) then washed once in cold stain buffer (BD Pharmigen 554656) at 300×g for 5 minutes. The cells were resuspended and aliquoted into three 5 ml round bottom tubes plus two additional aliquots for control. The cells were washed again in cold stain buffer at 300×g for 5 minutes. The cells were stained with PE mouse anti-human: CD54 (ICAM-1) (BD Pharmigen 555511) and Integrin αVβ3 anti (Millipore MAB1976H). The samples were vortexed and incubated for 30 minutes at 4° C. while being protected from light. […] After a final wash, 500 μl of stain buffer was added to each sample and analyzed by flow cytometry.

[8] = tested on: mAB/LPS-induced experimental arthritis; experiment: mAB/LPS-induced experimental murine arthritogenic model, paw thickness (five treatment days); assay type: in vivo, BALB/c male mice
Protocol: The mice were administered with 1, 5 and 25 mg/kg once daily oral (PO) gavage throughout five successive treatment days.

[9] = tested on: Normal human osteoblast cells (nHOST); experiment: Osteoblast production of RANKL and OPG (ELISA); assay type: cell-based; conditions: 7 days with 10 nM dexamethasone and 10 nM Vitamin D
Protocol: Normal human osteoblast cells (nHOST, source: Lonza) were plated in 6 well plates and incubated overnight for cell attachment. Cells were treated for 7 days with Compound A and with 10 nM dexamethasone and 10 nM Vitamin D. Compound and media was refreshed every 3-4 days. On Day 7 supernatent was collected for RANKL and OPG by ELISA.

[10] = Pharmacokinetic data for study drugs; set-up: species or system RA patients; conditions: human, in vivo; for concentration at 7 day: read-out: Cmin
[11] = tested on: mAB/LPS-induced experimental arthritis; experiment: Histopathological evaluation of the tibiotarsal joint of arthritic mice; assay type: in vivo; set-up: key to Fibrin deposition / Inflammatory infiltration in the synovial membrane / Pannus formation (reflected by proliferation of granulation tissue) / Cartilage disruption / Hyaline cartilage destruction (reflected by resorption/erosion in the cartilage) / Subchondral bone destruction (reflected by resorption/erosion by osteoclasts and loss of bone) / Overall assessment: “determined as arthritis” / Synovial hyperplasia / Synovial villus formation: 0=unremarkable; 1=minimal; 2=mild; 3=moderate; 4=marked; conditions: 25 mg/kg
Protocol: Compound A), total 16 animals were tested with Vehicle Control or 25 mg/kg of (+) isomer for histopathological evaluation. […] Each limb from the middle of the tibia and distally, to include the ankle joint, i.e., the joint between the leg and foot (tibial-tarsus joint), was trimmed mid-longitudinally, and both halves were embedded in paraffin and slides of 6 micron thickness were cut and stained by hematoxylin and eosin. Histopathological changes in the joints were described and scored, using semiquantitative grading of five grades (0-4), taking into consideration the severity of the changes (0=unremarkable, 1=minimal, 2=mild, 3=moderate, 4=marked). […] All typical ranges of changes characteristically seen in this arthritis were noted.

[12] = tibiotarsal joint, grade 0-4, individual animals No. 25-32

Compound: CN(Cc1cnc2nc(N)nc(N)c2n1)c1ccc(C(=O)N[C@@H](CCC(=O)O)C(=O)O)cc1 [MTX, methotrexate]
Cmax ([1]; Depending on RA patients): 300 to 1040 ng/mL
maximum plasma concentration (Cmax) [1]: 400 ng/mL
IL-7 gene expression ([2]; comparators): no significant effects

Compound: etanercept
mean group arthritogenic scoring value of both hind paws ([3]; 6.25 mg/kg, p<0.001 vs. Vehicle Control, study days 7, 9, 11 and 14): highly to extremely statistically lower (p<0.01 & p<0.001, respectively)
IC50, IL-13 and IP-10 ([4]; anti-CD3 antibody, 2 days): 0.016 to 0.062 µg/mL
IC50, TNF-α ([4]; anti-CD3 antibody, 2 days): 0.0015 µg/mL
Cmax (ng/ml) ([1]; RA patient 6 months 25-mg biweekly): 3000 (1700 to 5600) ng/ml
Cmax (ng/ml) ([1]; RA patients 50-mg weekly): weekly: 2400 ± 1500 ng/ml
Cmin ([1]; RA patients): 1200 ± 700 ng/mL
maximum plasma concentration (Cmax) [1]: 1600 ng/mL
Bioavailability ([1]; in vivo): 76%
IL-7 gene expression ([2]; comparators): no significant effects

IC50s, production of all T cell cytokines and chemokines measured (IL-2, IL-4, IL-13, IFN-γ, TNF-α, CXCL10, CCL3, and CCL4) ([4]; anti-CD3 antibody, 2 days, range over all analytes): 0.015 to 0.36 µg/mL
Cmax ([10]; 20-mg, day-7): 419 ng/mL
concentration at 7 day ([10]; 20-mg, day-7): 4.9 ng/mL
Compound: CCOc1cc([C@@H](CS(C)(=O)=O)N2C(=O)c3cccc(NC(C)=O)c3C2=O)ccc1OC [Compound A, (S)-N-(2-(1-(3-ethoxy-4-methoxyphenyl)-2-(methylsulfonyl)ethyl)-1,3-dioxoisoindolin-4-yl)acetamide]
IL-7 gene expression ([5]; 0.1-10 μM, normal primary human chondrocytes): significantly inhibited
inhibition of IL-7 gene expression compared with methotrexate and etanercept ([5]; dose ranges encompassing the respective Cmax of MTX and ETC): more effective inhibitor of IL-7 gene expression than methotrexate and etanercept
osteoclast formation (osteoclastogenesis) (Human bone marrow cells): inhibit osteoclast formation; also recorded: significantly inhibits osteoclastogenesis
arthritis by histopathological analysis ([6]; 25 mg/kg): practically no existing arthritis
hind-paw arthritic reaction scores and thickness ([6]; 5 and 25 mg/kg orally once daily on days 3-13): significantly reduced (p<0.01)
synovial hyperplasia, synovial villus formation, fibrin deposition, inflammatory infiltration in the synovial membrane, pannus formation, cartilage disruption, and subchondral bone destruction ([6]; high dose): inhibited
mean group arthritogenic scoring value of both hind paws ([3]; 25 mg/kg, vs. Vehicle Control on Days 9, 11 and 14, respectively): statistically to extremely significant reductions (p<0.05, p<0.01, p<0.001)
treatment-related adverse reactions ([3]; 5 and 25 mg/kg PO once daily, 11 days, 14-day observation period): No obvious treatment-related adverse reactions
mean group percentage change in hind paw thickness vs. arthritis induction initiation (Day 0) ([3]; 5 or 25 mg/kg, vs. Vehicle Control, Days 7, 9, 11 & 14): highly significantly lower (P<0.01)
alpha-v-beta-3 (αvβ3) integrin expression [7]: inhibited expression
intercellular adhesion molecule 1 (ICAM-1) expression [7]: inhibited expression
hind paw thickness (suppression of paw swelling) ([8]; 5 mg/kg PO once daily, limited to Day 9, vs. Vehicle Control): A lesser extent (p<0.05 vs. Vehicle Control)
hind paw thickness (suppression of paw swelling) ([8]; 25 mg/kg PO once daily, vs. Vehicle Control): highly statistically significant (p<0.01 vs. Vehicle Control) and constant suppression of paw swelling; also recorded: statistically significant reduction of paw swelling
sRANKL ([9]; 1 μM and 10 μM): significant decrease
OPG [9]: increase
RANKL/OPG ratio [9]: significantly inhibit
inhibition of IL-2, IL-4, IL-13, IFN-γ, TNF-α, CXCL10, CCL3, and CCL4 ([4]; human T cells): resulted in inhibition
IL-7 gene expression ([2]; 0.1-10 μM): significantly inhibited
arthritis by histopathological evaluation ([11]; all samples from treated animals): practically no existing arthritis
Cartilage disruption [11, 12]: 0
Fibrin deposition [11, 12]: 0 (6×) and 1 (2×)
Hyaline cartilage destruction (reflected by resorption/erosion in the cartilage) [11, 12]: 0
Inflammatory infiltration in the synovial membrane [11, 12]: 0
Overall assessment: “determined as arthritis” [11, 12]: 0
Pannus formation (reflected by proliferation of granulation tissue) [11, 12]: 0
Subchondral bone destruction (reflected by resorption/erosion by osteoclasts and loss of bone) [11, 12]: 0
Synovial hyperplasia [11, 12]: 0
Synovial villus formation [11, 12]: 0

Cmax ([10]; 200-mg day-7): 195 ng/mL
concentration at 7 day ([10]; 200-mg day-7): 40 ng/mL
Compound: CCOc1cc([C@@H](CS(C)(=O)=O)N2Cc3cccc(NC(=O)C4CC4)c3C2=O)ccc1OC [Compound B, (S)-N-(2-(1-(3-ethoxy-4-methoxyphenyl)-2-(methylsulfonyl)ethyl)-3-oxoisoindolin-4-yl)cyclopropanecarboxamide]
